Among the test systems are OVCAR-5 ovarian; 786-0 renal; CAKI-1 renal; SK-MEL-2 melanoma; HCT-15 colon; COLO 205 colon; HOP-92 NSCLC; A498 renal; NCI/ADR-RES ovarian; MCF7 breast.
Common to all, as to experiment: NCI anticancer screen, dose series, 48 h

Molecules are shown by their SMILES. Several values for one entry are separate records, joined by “and”; a condition that tells them apart may be missing. Equal entries are not always repeated.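 48-hour exposure; five concentrations; linearly interpolated endpoints. GI50: concentration for 50% inhibition of growth. TGI is the concentration that stops growth completely.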

With `CC(=O)[CH-]C(=O)c1ccccc1.CC(=O)[CH-]C(=O)c1ccccc1.CC(=O)[CH-]C(=O)c1ccccc1.[Tl+3]`, the GI50 in the experiment on OVCAR-5 ovarian was above 100 µM; with 786-0 renal it was 49200 nM; in the experiment with CAKI-1 renal, 75 µM; in the experiment with SK-MEL-2 melanoma it was 15700 nM; with HCT-15 colon, 41.7 µM; in the experiment with COLO 205 colon, 25900 nM. Also, the GI50 in the experiment on HOP-92 NSCLC is 40.6 µM; with A498 renal, above 100 µM. Moreover, the TGI is above 100 µM with OVCAR-5 ovarian; above 100 µM with 786-0 renal; above 100 µM with CAKI-1 renal; above 100 µM with SK-MEL-2 melanoma; above 100 µM with HCT-15 colon; 97.7 µM in the experiment on COLO 205 colon. The TGI with HOP-92 NSCLC was above 85.7 µM; in the experiment with A498 renal, above 100 µM.

In the case of `Cc1cc(O)c(C(=O)CC2(O)C(=O)Nc3c(Cl)cc(Cl)cc32)c(=O)o1` (configuration not stated), the TGI in the experiment with OVCAR-5 ovarian, in the experiment with 786-0 renal, in the experiment on CAKI-1 renal, in the experiment on SK-MEL-2 melanoma, in the experiment with HCT-15 colon and in the experiment on COLO 205 colon was above 100 µM each time. Further, the TGI in the experiment on HOP-92 NSCLC and in the experiment with A498 renal was above 100 µM in each case.

Take `N/N=C(\CC1OC(=O)c2ccccc21)c1ccco1` (configuration not stated): the TGI in the experiment with OVCAR-5 ovarian was above 100 µM; in the experiment with 786-0 renal it was 0.164 µM; with CAKI-1 renal, above 100 µM; in the experiment on SK-MEL-2 melanoma, above 100 µM; with HCT-15 colon, above 100 µM; with COLO 205 colon, above 100 µM. Also, the TGI in the experiment on HOP-92 NSCLC and in the experiment with A498 renal was above 100 µM each time.

Regarding `CC(=O)OCC1OC(OC2CC3C(C)(C)C(OC(C)=O)CC[C@]3(C)C3CCC45CC4(CC[C@H]5C(C)CC(O)[C@@H](O)C(C)(C)O)[C@]23C)C(O)C(O)C1O` (some centres not stated), the GI50 was 14.6 µM in the experiment with OVCAR-5 ovarian; 6.07 µM in the experiment on CAKI-1 renal; 2870 nM with SK-MEL-2 melanoma; 12 µM in the experiment on HCT-15 colon; 1930 nM in the experiment on COLO 205 colon; 4.05 µM in the experiment with HOP-92 NSCLC. In addition, the GI50 in the experiment with A498 renal was 19.6 µM. Moreover, the TGI is 13.9 µM and 27.9 µM in the experiment with OVCAR-5 ovarian; 14.2 µM and 21.9 µM with 786-0 renal; 13.4 µM and 17.2 µM in the experiment on CAKI-1 renal; 16.8 µM and 7.36 µM in the experiment with SK-MEL-2 melanoma; 14 µM and 24.3 µM in the experiment with HCT-15 colon; 14 µM and 3.95 µM in the experiment on COLO 205 colon. Also, the TGI was 13.1 µM and 11.7 µM in the experiment on HOP-92 NSCLC; 13.2 µM and 35.6 µM with A498 renal.

`Clc1ccc(-n2nnc(C3=NCCCN3)c2-c2ccccc2)cc1`: the TGI in the experiment on OVCAR-5 ovarian, in the experiment with 786-0 renal, in the experiment on CAKI-1 renal, with SK-MEL-2 melanoma, with HCT-15 colon and with COLO 205 colon was above 100 µM throughout. The TGI in the experiment with HOP-92 NSCLC and in the experiment with A498 renal was above 100 µM in each case.

As to `COc1ccc(/C=C2\CN(C(=O)C(Cl)Cl)C/C(=C\c3ccc(OC)c(OC)c3)C2=O)cc1OC`, the GI50 was 326 nM with 786-0 renal; 86.4 nM in the experiment on NCI/ADR-RES ovarian; 0.368 µM in the experiment with CAKI-1 renal; 1850 nM with SK-MEL-2 melanoma; 0.069 µM in the experiment with HCT-15 colon; 307 nM in the experiment with COLO 205 colon. The GI50 with HOP-92 NSCLC is 0.532 µM. Besides, the TGI in the experiment with 786-0 renal is 1.19 µM; in the experiment with NCI/ADR-RES ovarian, above 67.5 µM; in the experiment with CAKI-1 renal, 1.98 µM; in the experiment with SK-MEL-2 melanoma, above 100 µM; in the experiment on HCT-15 colon, 0.446 µM; in the experiment with COLO 205 colon, 1.6 µM. The molecule further showed a TGI in the experiment on HOP-92 NSCLC of 3.79 µM.

Consider `COc1ccc2c(c1)nc(N)c1c3cc(OC)c(OC)cc3cn21`, for which the GI50 in the experiment on OVCAR-5 ovarian was 0.0749 µM; in the experiment with 786-0 renal it was 205 nM; in the experiment with SK-MEL-2 melanoma it was 2130 nM; with HCT-15 colon, below 0.01 µM; in the experiment on MCF7 breast, 148 nM; with HOP-92 NSCLC it was 5.09 µM. Also, the GI50 with A498 renal was 0.0135 µM. The TGI in the experiment on OVCAR-5 ovarian is 18.8 µM; in the experiment on 786-0 renal, 11.9 µM; in the experiment on CAKI-1 renal it was 19.8 µM; in the experiment on SK-MEL-2 melanoma, 24.1 µM; in the experiment on HCT-15 colon, 13.3 µM; in the experiment with MCF7 breast it was 13.7 µM. Besides, the TGI with COLO 205 colon was found to be 0.521 µM; with HOP-92 NSCLC, 23.9 µM; in the experiment with A498 renal, 0.592 µM.

In the case of `O=[N+]([O-])c1ccc(Sc2c3ccccc3nc3ccccc23)cc1`, the TGI in the experiment on OVCAR-5 ovarian, in the experiment with 786-0 renal, with CAKI-1 renal, in the experiment with SK-MEL-2 melanoma, in the experiment on HCT-15 colon and in the experiment with COLO 205 colon was above 100 µM throughout.

Consider `C1CNCCNCCNCCN1`, for which the TGI with OVCAR-5 ovarian, in the experiment on 786-0 renal, with SK-MEL-2 melanoma, in the experiment with COLO 205 colon and in the experiment with A498 renal was above 100 µM each time.

Take `COc1ccc(C(=O)C(c2ccc(OC)cc2)C2(O)C(=O)Nc3c(C)cc(Cl)cc32)cc1` (configuration not stated): the TGI in the experiment on OVCAR-5 ovarian, in the experiment on 786-0 renal, with SK-MEL-2 melanoma, in the experiment with HCT-15 colon, in the experiment on COLO 205 colon and with HOP-92 NSCLC was above 100 µM in each case. In the experiment on A498 renal, this molecule gave a TGI above 100 µM.

Regarding `CC(C)=CC(=O)Oc1ccc([N+](=O)[O-])cc1`, the TGI in the experiment with OVCAR-5 ovarian was above 100 µM; with 786-0 renal it was above 100 µM; in the experiment on CAKI-1 renal, 53.8 µM; in the experiment on SK-MEL-2 melanoma, above 100 µM; in the experiment with HCT-15 colon, above 100 µM; in the experiment with COLO 205 colon, above 100 µM. Further, the TGI in the experiment with HOP-92 NSCLC and in the experiment on A498 renal was above 100 µM each time.

Turning to `N#CCc1ccc(C(C#N)/C(CCCC(=O)Nc2cccc([N+](=O)[O-])c2)=N\NC(=O)NN)cc1` (configuration not stated), the TGI in the experiment on OVCAR-5 ovarian, with 786-0 renal, with CAKI-1 renal, with SK-MEL-2 melanoma, in the experiment on HCT-15 colon and in the experiment with COLO 205 colon was above 100 µM throughout. In addition, the TGI in the experiment with HOP-92 NSCLC and in the experiment with A498 renal was above 100 µM throughout.

On to `CC(=O)OCSc1ncnc2c1ncn2CN1CCOCC1`, for which the TGI in the experiment on OVCAR-5 ovarian was above 100 µM; in the experiment on 786-0 renal it was above 100 µM; in the experiment on CAKI-1 renal it was above 100 µM; in the experiment with SK-MEL-2 melanoma, above 100 µM; with HCT-15 colon it was above 100 µM; with COLO 205 colon, 53.1 µM. For the same molecule, the TGI with HOP-92 NSCLC and with A498 renal was above 100 µM each time.

These data come from PubChem BioAssay (NCI).
